The values below come from paper PMC8766756, “Insights on Cancer Cell Inhibition, Subcellular Activities, and Kinase Profile of Phenylacetamides Pending 1H-Imidazol-5-One Variants” (Frontiers in Pharmacology, 2022).

Data set [1] relates to MCF7 breast cancer cell line. Kind of data set: SRB cytotoxicity assay. The class given is cell-based, human. Conditions: for IC50: Homo sapiens, MCF7, 72 h, MCF7, SRB, 72 h, read-out: IC50 ± SEM MCF7. The protocol: (§1) The compounds were screened for their anticancer activities against a variety of cancer cell lines. The cytotoxic effect of the compounds was evaluated using the sulforhodamine B (SRB) cytotoxicity assay for breast cancer line (MCF7) and prostate cancer cell line (PC3) ([Vichai and Kirtikara, 2006]; [Rana et al., 2021]) and 3-(4,5-dimethylthiazol-2-yl)-2,5-diphenyl-2H-tetrazolium bromide (MTT) assay for the colon cancer (HCT116) cell lines ([El-Huneidi et al., 2020]). The CellTiter-Blue® cell viability assay was performed on the various leukemia cell lines, HL60, NB4, and KG1a cells ([Akter et al., 2019]). The IC50 values are illustrated in Table 1.
(§2) MCF7 (breast), PC3 (prostate), and HCT116 (colon) cancer cell lines were obtained from ATCC, Manassas, VA, USA. Cells were grown in Roswell Park Memorial Institute-1640 (RPMI-1640) medium (Thermo Fisher Scientific, Inc., Waltham, MA, USA), supplemented with 10% heat inactivated fetal bovine serum (FBS), 50 units/mL of penicillin, and […] of streptomycin and maintained at 37°C in a humidified atmosphere containing 5% CO2. The cells were maintained as “monolayer culture” by serial subculturing.
(§3) Exponentially growing MCF7 and PC3 cells were collected using 0.25% Trypsin-EDTA and were then seeded in 96-well plates at a density of 1,000–2,000 cells/well in 10% FBS and penicillin/streptomycin supplemented RPMI-1640 medium. After 24 h, the cells were treated with different concentrations of the test compounds and incubated for 72 h at 37°C in a humidified atmosphere containing 5% CO2. Next, the cells were fixed by trichloroacetic acid (TCA) (10% final concentration in wells) directly to the wells and incubated for 1 h at 4°C, then the cells were washed with distilled water five times to remove excess TCA, media, serum proteins, and metabolites, followed by air drying. After that, the fixed cells were stained with 0.4% SRB dissolved in 1% acetic acid for 10 min at room temperature, and excess stain was removed by quickly rinsing with 1% acetic acid. The residual acetic acid was removed completely by air drying the plates for 24 h, and the dye was solubilized with Tris buffer (pH = 7.4, 10 mM) for 5 min on a shaker at 1,600 rpm. The optical density of each well was measured spectrophotometrically at 564 nm with an ELISA microplate reader (ChroMate-4300, FL, USA). The IC50 values were calculated according to the equation for Boltzman sigmoidal concentration–response curve using the nonlinear regression fitting models (GraphPad®, Prism Version 5).

In data set [2] the test system is PC3 prostate cancer cell line. Kind of data set: SRB cytotoxicity assay. In kind it is cell-based, human. The note with it: Homo sapiens, 72 h, read-out: IC50 ± SEM PC3. The protocol:
as §1, §2, §3

For data set [3], the target named is Src kinase. Further details: method as in Antonarakis et al., 2013. The note with it: ref Antonarakis et al., 2013; read-out: Src kinase inhibition IC50; cited from earlier work.
Data set [4] has as its system tubulin polymerization. Details: method as in earlier work. The note with it: ref Hangauer, 2007; Smolinski et al., 2018; Markham and Duggan, 2021; read-out: tubulin polymerization inhibition IC50; cited from earlier work.
The test system of data set [5] is HCT116 colon cancer cell line. Kind of data set: MTT antiproliferative assay. The note with it: Homo sapiens, HCT-116; HCT116, MTT, 72 h; read-out: IC50 ± SEM HCT116. In kind it is cell-based. The protocol:
as §1, §2
The test compounds were evaluated for antiproliferative activity using the MTT viability assay against the HCT116 cell line. The cells were seeded in triplicate in 96-well plates at a density of 10 × 10^3 cells/mL in a total volume of 200 µL per well. 0.1% of DMSO was used as a vehicle control. Each well was treated with 2 µL of test compound, which had been preprepared as stock solutions in ethanol to furnish the concentration range of the study, 0.1–50 μM, and re-incubated for a further 72 h at 37°C in a humidified atmosphere containing 5% CO2. The culture medium was then removed, and the cells were washed with 100 µL of PBS, and 100 µL of MTT was added, to reach a final concentration of 1 mg/ml of MTT. The cells were incubated for 3 h in darkness at 37°C. After removal of MTT solution, solubilization was initiated through the addition of […] of DMSO, and the cells were maintained at room temperature in darkness for 20 min to ensure thorough color diffusion before reading the absorbance with a microplate reader at 570 nm. The results were expressed as percentage viability relative to vehicle control (100%). The dose–response curves were plotted, and the IC50 values (concentration of drug resulting in 50% reduction in cell survival) were obtained using the commercial software package Prism (GraphPad® Software, Inc., La Jolla, CA, USA). All the experiments were repeated in at least three independent experiments.

Data set [6] relates to HL60 leukemia cell line. Kind of data set: CellTiter-Blue cell viability assay. The class given is cell-based. Conditions: Homo sapiens, HL-60, 48 h, read-out: IC50 ± SEM HL60. The protocol:
as §1
HL60, NB4, and KG1a were purchased from CLS Cell Line Service GmbH (Eppelheim, Germany). All cell lines were cultured in RPMI-1640 medium supplemented with 10% FBS (Thermo Fisher Scientific) and ciprofloxacin (10 μg/ml; Cipla Limited; Mumbai, India), at 37°C with 5% CO2 in a humidified incubator.
The CellTiter-Blue® Cell Viability assay was acquired from Promega Corporation (Madison, WI, USA). The cell viability assay was performed as follows: the cells (10^4/well) were incubated with a concentration gradient of the test compounds ranging from 0.01 to 100 μM, in 96-well plates for 48 h at 37°C. Subsequently, 20 µL of the CellTiter-Blue® Cell Viability reagent was added to each well and incubated for an additional 2 h for the development of fluorescence. The fluorescence emission was measured at 590 nm using the SpectraMax® i3x Multi-Mode Microplate Reader (Molecular Devices, LLC; San Jose, CA, USA.) and plotted against the drug concentrations to determine the IC50 of the test compounds.

Take `COc1cc(/C=C2\N=C(c3ccccc3)N(c3ccc(CC(=O)NCc4ccccc4)cc3)C2=O)ccc1O` [Compound 4h, (Z)-N-Benzyl-2-(4-(4-(4-hydroxy-3-methoxybenzylidene)-5-oxo-2-phenyl-4,5-dihydro-1H-imidazol-1-yl)phenyl)acetamide]: the melting point was in the range of 109 to 112 °C. Besides, the IC50 in data set [1] was determined as 35.1 ± 4.57 µM. In data set [2], the half-inhibitory concentration (IC50) was 37.5 ± 15.4 µM.

On to `O=C(Cc1ccc(-c2ccc(OCCN3CCOCC3)cc2)cn1)NCc1ccccc1` [KX2-391, Tirbanibulin], for which the IC50 in data set [3] was 0.025 µM; in data set [4], 0.25 µM.

`O=C(Cc1ccc(N2C(=O)/C(=C/c3ccccc3)N=C2c2ccccc2)cc1)NCc1ccccc1` [Compound 4e, (Z)-N-Benzyl-2-(4-(4-benzylidene-5-oxo-2-phenyl-4,5-dihydro-1H-imidazol-1-yl)phenyl)acetamide] yielded a melting point of 218 to 219 °C. The IC50 in data set [1] was 34.9 ± 8.08 µM. Moreover, the IC50 in data set [2] is 41.7 ± 2.99 µM.

Take `O=C(Cc1ccc(N2C(=O)/C(=C/c3ccc(Cl)cc3)N=C2c2ccccc2)cc1)NCc1ccccc1` [Compound 4f, (Z)-N-Benzyl-2-(4-(4-(4-chlorobenzylidene)-5-oxo-2-phenyl-4,5-dihydro-1H-imidazol-1-yl)phenyl)acetamide]: the melting point was 218 to 220 °C. The IC50 in data set [1] is 44.2 ± 8.67 µM. The half-inhibitory concentration (IC50) in data set [2] is 74.2 ± 12.3 µM.

The compound `CC1=N/C(=C\c2ccccc2)C(=O)N1c1ccc(CC(=O)NCc2ccccc2)cc1` [Compound 4a, (Z)-N-Benzyl-2-(4-(4-benzylidene-2-methyl-5-oxo-4,5-dihydro-1H-imidazol-1-yl)phenyl)acetamide] registered a melting point of 164 to 165 °C. Moreover, the 50% inhibitory concentration (IC50) in data set [1] was determined as 11.6 ± 2.01 µM. Further, the half-inhibitory concentration (IC50) in data set [2] came to 1.67 ± 0.66 µM.

In turn, `COc1ccc(/C=C2\N=C(c3ccccc3)N(c3ccc(CC(=O)NCc4ccccc4)cc3)C2=O)cc1` [Compound 4g, (Z)-N-Benzyl-2-(4-(4-(4-methoxybenzylidene)-5-oxo-2-phenyl-4,5-dihydro-1H-imidazol-1-yl)phenyl)acetamide] had a melting point of 193 °C. In addition, in data set [1], the half-maximal inhibitory concentration (IC50) came to 32.1 ± 3.98 µM. For the same compound, the “activity relative to KIM-161” value in data set [1] (phenyl instead of methyl, Table 1) was “less than one-tenth”. Besides, the concentration for half-maximal inhibition (IC50) in data set [2] came to 38.7 ± 5.01 µM.

Compound `COc1ccc(C=C(NC(C)=O)C(=O)Nc2ccc(CC(=O)NCc3ccccc3)cc2)cc1` (stereo in doubt) [Compound 5, (E)-2-acetamido-N-(4-(2-(benzylamino)-2-oxoethyl)phenyl)-3-(4-methoxyphenyl) acrylamide] registered a melting point of 189 to 200 °C. Besides, the IC50 in data set [1] stood at 44.3 ± 9.2 µM. Besides, the “times less active than 4c (KIM-161)” value in data set [1] (on MCF7 and PC3 cells) was 20–40 times. For the same compound, the IC50 in data set [2] amounted to 41.1 ± 9.55 µM.

Compound `CC1=N/C(=C\c2ccc(Cl)cc2)C(=O)N1c1ccc(CC(=O)NCc2ccccc2)cc1` [Compound 4b, (Z)-N-Benzyl-2-(4-(4-(4-chlorobenzylidene)-2-methyl-5-oxo-4,5-dihydro-1H-imidazol-1-yl)phenyl)acetamide] had a melting point of 209 to 211 °C. The IC50 in data set [1] is 20.8 ± 1.35 µM. Moreover, the IC50 in data set [2] was determined as 6.87 ± 0.41 µM. Further, in data set [5], the 50% inhibitory concentration (IC50) is over 50 µM.

On to `COc1cc(/C=C2\N=C(C)N(c3ccc(CC(=O)NCc4ccccc4)cc3)C2=O)ccc1O` [Compound 4d, (Z)-N-Benzyl-2-(4-(4-(4-hydroxy-3-methoxybenzylidene)-2-methyl-5-oxo-4,5-dihydro-1H-imidazol-1-yl)phenyl)acetamide], for which the half-inhibitory concentration (IC50) came to 9.48 ± 1.16 µM in data set [1], 5.83 ± 1.44 µM in data set [2], 6.13 ± 1.35 µM in data set [5] and 1.44 ± 0.07 µM in data set [6].
